Read-outs that look alike come from different tables or passages of the source.
What was measured:
KDM5A = target: T1, KDM5A (Homo sapiens, UniProt P29375); assay: KDM5A Assay (SAMDI mass spectrometry demethylase assay); type: biochemical; conditions: C-terminal FLAG-tagged KDM5A 1-1090, read-out: 5A IC50
T1 construct: C-terminal FLAG-tagged KDM5A^1-1090 was purchased from BPS Biosciences; FLAG (C); purchased BPS Biosciences
T1 sequence (P29375 1-1090): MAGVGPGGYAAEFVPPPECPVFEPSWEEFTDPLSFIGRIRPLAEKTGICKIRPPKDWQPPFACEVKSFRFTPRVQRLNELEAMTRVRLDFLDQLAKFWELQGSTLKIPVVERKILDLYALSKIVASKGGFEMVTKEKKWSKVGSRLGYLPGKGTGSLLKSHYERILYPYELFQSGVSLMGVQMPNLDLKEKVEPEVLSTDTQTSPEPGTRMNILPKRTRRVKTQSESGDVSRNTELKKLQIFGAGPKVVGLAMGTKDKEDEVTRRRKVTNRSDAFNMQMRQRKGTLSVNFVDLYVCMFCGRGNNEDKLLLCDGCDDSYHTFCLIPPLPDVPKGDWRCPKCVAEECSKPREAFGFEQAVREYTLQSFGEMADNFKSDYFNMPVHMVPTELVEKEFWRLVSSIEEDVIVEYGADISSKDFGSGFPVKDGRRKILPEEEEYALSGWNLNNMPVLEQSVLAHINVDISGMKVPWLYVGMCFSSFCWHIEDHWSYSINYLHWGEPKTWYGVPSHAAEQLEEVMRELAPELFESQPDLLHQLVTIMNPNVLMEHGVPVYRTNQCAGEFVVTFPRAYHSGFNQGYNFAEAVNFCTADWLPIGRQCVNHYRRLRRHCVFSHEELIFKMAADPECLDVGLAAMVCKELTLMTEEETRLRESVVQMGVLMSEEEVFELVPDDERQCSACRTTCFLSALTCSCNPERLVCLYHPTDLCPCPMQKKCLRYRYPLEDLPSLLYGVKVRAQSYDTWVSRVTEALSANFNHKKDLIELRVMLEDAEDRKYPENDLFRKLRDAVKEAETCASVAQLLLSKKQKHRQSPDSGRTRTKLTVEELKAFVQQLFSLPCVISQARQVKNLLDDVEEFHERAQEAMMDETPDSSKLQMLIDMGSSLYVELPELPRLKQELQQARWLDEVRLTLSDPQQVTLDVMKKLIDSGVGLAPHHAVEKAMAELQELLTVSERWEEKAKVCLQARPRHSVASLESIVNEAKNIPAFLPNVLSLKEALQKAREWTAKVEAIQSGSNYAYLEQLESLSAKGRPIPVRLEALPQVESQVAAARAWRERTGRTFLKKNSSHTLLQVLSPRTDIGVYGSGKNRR
Protocol: (§1) C-terminal FLAG-tagged KDM5A^1-1090 was purchased from BPS Biosciences. Peptides were synthesized by BioPeptide and all other reagents were purchased from Sigma-Aldrich at the highest level of purity possible. Assays were performed in a 50 μL volume in 384-well V-bottom polypropylene microplates (Greiner) at 25° C. Optimized 1× assay buffer was 50 mM HEPES (pH=8.0), 100 μM sodium ascorbate, 20 mM NaCl, 10 μM ammonium iron sulfate, 1 mM tris(2-carboxyethyl)phosphine (TCEP), 0.002% Tween-20, and 0.005% BSG. For compound screening, 35 μL of KDM5A^1-109° (final concentration, f.c.=20 nM) was added using a Multidrop Combi and preincubated with 1 μL of test compound (f.c.=10 μM) for 30 minutes and subsequently 15 μL of peptide with the following sequence NH2-ART[Kme-3]QTARKSTGGKA[K-Ahx-Biot]-amide (f.c.=250 nM) and 2-oxoglutarate (f.c.=15 μM) was added by Multidrop Combi to begin the reaction. Reactions proceeded for 150 minutes and were stopped by the addition of 5 μL of formic acid (f.c.=0.5%) using a Multidrop Combi and then analyzed by SAMDI Tech Inc.
(§2) SAMDI Tech analyzed all reactions using self-assembled monoloayer desorption/ionization technology as previously described (Gerard-Levin Z A, Scholle M D, Eisenberg A H, et al.: High-throughput screening of small molecule libraries using SAMDI mass spectrometry. ACS Comb Sci 2011; 13:347-350). Briefly, a 2 μL sample of the stopped demethylase reactions were transferred to a SAMDI array coated with 384 biotin-neutravidin spots using a 384-channel pipet station. The SAMDI arrays were incubated for 1 h in a humidified chamber, followed by washing of the surface with deionized ultra-filtered water (DIUF) and drying under nitrogen. A matrix of 30 mg/ml 2′,4′,6′-Trihydroxyacetophenone monohydrate (THAP) in acetone was applied using a TPP Mosquito 1.2 μL tip by dispensing 50 nL on each of the 384 spots on the array. SAMDI-MS was run using acquisition method ReflectorPositiveUTX. The % conversion of substrate to product was calculated using the AUC of the substrate and product peptide peaks.
(§3) An IC50 value was determined by contacting various concentrations of a test compound with one of the KDM4A, KDM4C or KDMSC enzyme constructs and plotting a dose-response curve which associates the amount of inhibition of the enzyme relative to the concentration of the test compound. From the curve, the IC50 value (which represents the concentration of the test compound necessary to inhibit maximal enzymatic activity by 50%) was determined. Additionally, the slope of the linear range of the plotted curve, which indicates the speed with which the curve rises between the minimum and maximum, was calculated.

KDM4C = target: T2, KDM4C (Homo sapiens, UniProt Q9H3R0); assay: KDM4C Assay (SAMDI mass spectrometry demethylase assay); type: biochemical; conditions: N-terminal GST-tagged KDM4C 2-372, read-out: 4C IC50
T2 construct: N-terminal GST-tagged KDM4C^2-372 was purchased from BPS Biosciences; GST (N); purchased BPS Biosciences
T2 sequence (Q9H3R0 2-372): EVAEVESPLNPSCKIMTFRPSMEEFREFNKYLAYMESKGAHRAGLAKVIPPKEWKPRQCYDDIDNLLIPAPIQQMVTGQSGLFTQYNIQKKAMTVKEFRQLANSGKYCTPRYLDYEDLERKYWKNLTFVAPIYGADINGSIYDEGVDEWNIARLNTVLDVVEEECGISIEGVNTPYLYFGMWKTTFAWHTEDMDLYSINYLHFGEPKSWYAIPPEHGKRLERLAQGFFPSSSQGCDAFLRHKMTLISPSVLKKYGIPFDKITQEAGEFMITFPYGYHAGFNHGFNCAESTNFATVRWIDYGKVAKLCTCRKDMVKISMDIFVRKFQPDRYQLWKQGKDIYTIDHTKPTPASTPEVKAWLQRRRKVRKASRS
Protocol: as §1, with “N-terminal GST-tagged KDM4C^2-372” for “C-terminal FLAG-tagged KDM5A^1-1090”, “KDM4C^2-372” for “KDM5A^1-109°”, “f.c.=5” for “f.c.=20”, “NH2-ARTKQTAR(Kme3)STGGKAPRKQLA(K-Ahx-Biotin)-amide (f.c.=500” for “NH2-ART[Kme-3]QTARKSTGGKA[K-Ahx-Biot]-amide (f.c.=250”
as §2, §3

SMILES | IC50 (KDM5A; class symbols) | IC50 (KDM4C; class symbols) | IC50 (KDM4C; numeric bound) | IC50 (KDM5A; numeric bound)
Cc1c(Nc2cnccc2C(=O)O)cnn1C1CCN(c2ccccc2)CC1 [Compound 106, 3-(5-methyl-1-(1-phenylpiperidin-4-yl)-1H-pyrazol-4-ylamino)isonicotinic acid] | 1000 to 10000 nM | 1 to 100 nM | – | –
O=C(O)c1ccncc1Nc1nn(C2CCNCC2)cc1-c1ccccc1 [Compound 129, 3-(4-phenyl-1-(piperidin-4-yl)-1H-pyrazol-3-ylamino) isonicotinic acid] | 1 to 100 nM | 100 to 1000 nM | – | –
Cc1c(Nc2cnccc2C(=O)O)cnn1CCN(C)C [Compound 108] | 1000 to 10000 nM | 1000 to 10000 nM | – | –
Cc1c(Nc2cnccc2C(=O)O)cnn1C1CCCN(C2CCC2)CC1 (single isomer, unassigned) [Compound 119] | 1000 to 10000 nM | 100 to 1000 nM | – | –
Cc1nn([C@H]2CNC[C@H]2C)cc1Nc1cnccc1C(=O)O (single isomer, unassigned) [Compound 110] | 1 to 100 nM | 100 to 1000 nM | – | –
Cc1cn(Cc2ccccc2)nc1Nc1cnccc1C(=O)O [Compound 128, 3-(1-benzyl-4-methyl-1H-pyrazol-3-ylamino)isonicotinic acid] | 100 to 1000 nM | 100 to 1000 nM | – | –
Cc1nn(C2CCCN(C3CCC3)CC2)cc1Nc1cnccc1C(=O)O (single isomer, unassigned) [Compound 118] | 100 to 1000 nM | 1000 to 10000 nM | – | –
Cc1c(Nc2cnccc2C(=O)O)cnn1C1CCCNCC1 (single isomer, unassigned) [Compound 113] | 1000 to 10000 nM | 100 to 1000 nM | – | –
Cc1nn(C2CCN(c3ccccc3)CC2)cc1Nc1cnccc1C(=O)O [Compound 105, 3-(3-methyl-1-(1-phenylpiperidin-4-yl)-1H-pyrazol-4-ylamino) isonicotinic acid] | 1 to 100 nM | 100 to 1000 nM | – | –
Cc1nn([C@@H]2CNC[C@@H]2C)cc1Nc1cnccc1C(=O)O (single isomer, unassigned) [Compound 109] | 100 to 1000 nM | 1000 to 10000 nM | – | –
Cc1c(Nc2cnccc2C(=O)O)cnn1C1CCCN(C2CCC2)CC1 (single isomer, unassigned) [Compound 117] | 1000 to 10000 nM | 100 to 1000 nM | – | –
Cc1cn(-c2cccc3c2CCNC3)nc1Nc1cnccc1C(=O)O [Compound 143, 3-(4-methyl-1-(1,2,3,4-tetrahydroisoquinolin-5-yl)-1H-pyrazol-3-ylamino)isonicotinic acid] | 1 to 100 nM | 100 to 1000 nM | – | –

Other lines, results leading:

IC50 (KDM5A; class symbols) | IC50 (KDM4C; class symbols) | IC50 (KDM4C; numeric bound) | IC50 (KDM5A; numeric bound) | SMILES
10000 to 100000 nM | 10000 to 100000 nM | – | – | Cc1cnn(C2CCCN(CCN)C2)c1Nc1cnccc1C(=O)O (centres unmarked) [Compound 140, 3-(1-(1-(2-aminoethyl)piperidin-3-yl)-4-methyl-1H-pyrazol-5-yl-amino)isonicotinic acid]
1000 to 10000 nM | 1000 to 10000 nM | – | – | CN(C)CCc1cn(-c2ccccc2)nc1Nc1cnccc1C(=O)O [Compound 144, 3-(4-(2-(dimethylamino)ethyl)-1-phenyl-1H-pyrazol-3-ylamino) isonicotinic acid]
10000 to 100000 nM | 10000 to 100000 nM | – | – | O=C(O)c1ccncc1Nc1c(-c2ccccc2)cnn1[C@H]1CNc2ccccc2C1 [Compound 137, (R)-3-(4-phenyl-1-(1,2,3,4-tetrahydroquinolin-3-yl)-1H-pyrazol-5-ylamino)isonicotinic acid]
10000 to 100000 nM | – | > 100000 nM | – | Cc1nn([C@@H]2CCN(C)C2)cc1Nc1cnccc1C(=O)NCCO [Compound 122, (R)—N-(2-hydroxy-ethyl)-3-((3-methyl-1-(1-methylpyrrolidin-3-yl)-1H-pyrazol-4-yl)amino)isonicotin-amide]
1000 to 10000 nM | 100 to 1000 nM | – | – | CCc1c(Nc2cnccc2C(=O)O)cnn1C1CCN(C)CC1 [Compound 123, 3-(5-ethyl-1-(1-methylpiperidin-4-yl)-1H-pyrazol-4-ylamino) isonicotinic acid]
100 to 1000 nM | 100 to 1000 nM | – | – | CN1CCC(n2cc(Nc3cnccc3C(=O)O)c(-c3ccccc3)n2)CC1 [Compound 127, 3-(1-(1-methylpiperidin-4-yl)-3-phenyl-1H-pyrazol-4-ylamino)isonicotinic acid]
1 to 100 nM | 100 to 1000 nM | – | – | Cc1cn(C2CCCNC2)nc1Nc1cnccc1C(=O)O (centres unmarked) [Compound 141, 3-(4-methyl-1-(piperidin-3-yl)-1H-pyrazol-3-ylamino) isonicotinic acid]
100 to 1000 nM | 100 to 1000 nM | – | – | Cc1nn(C2CCCN(C3CCC3)CC2)cc1Nc1cnccc1C(=O)O (single isomer, unassigned) [Compound 120]
– | – | > 100000 nM | > 100000 nM | Cc1nn([C@H]2CCN(C)C2)cc1Nc1cnccc1C(=O)NCCO [Compound 121, (S)—N-(2-hydroxyethyl)-3-((3-methyl-1-(1-methylpyrrolidin-3-yl)-1H-pyrazol-4-yl)amino)isonicotinamide]
1 to 100 nM | 100 to 1000 nM | – | – | CN1CCC(n2cc(-c3ccccc3)c(Nc3cnccc3C(=O)O)n2)CC1 [Compound 130, 3-(1-(1-methylpiperidin-4-yl)-4-phenyl-1H-pyrazol-3-ylamino) isonicotinic acid]
